System: kidney injury (ischemia-reperfusion)
Conditions: rat; for blood urea nitrogen (BUN) / plasma creatinine: 15 mg/kg IV after ischemia-reperfusion, 24 hours after reperfusion, vs IR-vehicle; for kidney injury: dosed IV after ischemia-reperfusion

| SMILES | blood urea nitrogen (BUN) | plasma creatinine | kidney injury |
| --- | --- | --- | --- |
| C[C@H]1CN(c2ccc(C#N)cn2)CCN1C(=O)CCc1nc2ccc(F)cc2c(=O)[nH]1 [Ex. 29, 6-[(3S)-4-[3-(6-fluoro-4-oxo-3H-quinazolin-2-yl)propanoyl]-3-methyl-piperazin-1-yl]pyridine-3-carbonitrile] | significantly reduced | significantly reduced | reduced kidney injury |
| C[C@H]1CN(c2ccc(C#N)cn2)CCN1C(=O)CCc1nc2cccc(F)c2c(=O)[nH]1 [Ex. 30, 6-[(3S)-4-[3-(5-fluoro-4-oxo-3H-quinazolin-2-yl)propanoyl]-3-methyl-piperazin-1-yl]pyridine-3-carbonitrile] | significantly reduced | significantly reduced | reduced kidney injury |
